In brackets after ≈: the same amount, converted by molar mass.

A word on the MIC: it is the lowest concentration found to suppress growth.

Data set [1] in a line: Solubility of the compound in ethanol. It counts as physicochemical.
The nature of data set [2]: Solubility of the compound in dilute acids. It counts as physicochemical.
A short description of data set [3]: Solubility of the compound in acetic acid. It counts as physicochemical.
The nature of data set [4]: Solubility of the compound in ethyl acetate. It counts as physicochemical.
Data set [5] can be described thus: Solubility of the compound in DMF. It counts as physicochemical.
The nature of data set [6]: Solubility of the compound in DMSO. Format: physicochemical.
Data set [7] in a line: Solubility of the compound in benzene. Format: physicochemical.
The nature of data set [8]: Solubility of the compound in water. It counts as physicochemical.
Data set [9] is described as follows: Solubility of the compound in chloroform. It counts as physicochemical.
Another data set has as its system Bacillus cereus. The data set can be described thus: Antibacterial activity against Bacillus cereus NCIM 2156 after 24 hr by broth dilution method. The conditions noted are these: NCIM 2156, 24 h. It counts as functional. On the technique in general: Broth dilution looks for growth in wells or tubes with falling amounts of substance.
The test system of the next data set is Bacillus subtilis. In words: Antibacterial activity against Bacillus subtilis NCIM 2063 after 24 hr by broth dilution method. Format: functional. The conditions noted are these: NCIM 2063, 24 h.
The test system of another data set is Klebsiella pneumoniae. In words: Antibacterial activity against Klebsiella pneumoniae NCIM 2706 after 24 hr by broth dilution method. Format: functional. The conditions noted are these: NCIM 2706, 24 h.
The next data set relates to Escherichia coli. The data set can be described thus: Antibacterial activity against Escherichia coli NCIM 2065 after 24 hr by broth dilution method. It counts as functional. The note with it: NCIM 2065, 24 h.
Another data set relates to Staphylococcus aureus. In words: Antibacterial activity against Staphylococcus aureus NCIM 2079 after 24 hr by broth dilution method. It counts as functional. The note with it: NCIM 2079, 24 h.
For the next data set, the system named is Pseudomonas aeruginosa. In words: Antibacterial activity against Pseudomonas aeruginosa NCIM 2036 after 24 hr by broth dilution method. Format: functional. The note with it: NCIM 2036, 24 h.

Turning to `Nc1nc(-c2ccc([N+](=O)[O-])cc2)cs1`, the solubility result in [1] is given as “soluble”; in [2] it was “soluble”; in data set [3], “Insoluble”; in [4], “soluble”; in data set [5] it was “soluble”; in data set [6], “soluble”. Further, the solubility result in [7], in data set [8] and in data set [9] was “soluble” in each case.
Consider `Nc1nc(-c2ccc(Cl)cc2)cs1`, for which the solubility entry in [1] is “soluble”; in data set [2] it was “soluble”; in data set [3] it was “Insoluble”; in data set [4], “soluble”; in [5], “soluble”; in data set [6] it was “soluble”. The solubility entry in data set [7], in data set [8] and in data set [9] was “soluble” in each case.
Take `Fc1ccc(Nc2nc(Cl)nc(Nc3ccc(F)c(Cl)c3)n2)cc1Cl`: the MIC against Bacillus cereus is 100 µg/mL (≈ 248 µM); in the data set with Bacillus subtilis, 100 µg/mL (≈ 248 µM); in the data set with Klebsiella pneumoniae it was 100 µg/mL (≈ 248 µM); with Escherichia coli, 100 µg/mL (≈ 248 µM); in the data set on Staphylococcus aureus, 50 µg/mL (≈ 124 µM); in the data set with Pseudomonas aeruginosa, 100 µg/mL (≈ 248 µM). Also, the solubility result in [1], in data set [2], in [3], in [6], in [7] and in [8] was “soluble” throughout.
In the case of `O=[N+]([O-])c1ccc(Nc2nc(Cl)nc(Nc3ccc([N+](=O)[O-])cc3)n2)cc1`, the MIC against Bacillus cereus is 100 µg/mL (≈ 258 µM); in the data set with Bacillus subtilis, 100 µg/mL (≈ 258 µM); against Klebsiella pneumoniae it was 100 µg/mL (≈ 258 µM); with Escherichia coli, 50 µg/mL (≈ 129 µM); in the data set with Staphylococcus aureus, 50 µg/mL (≈ 129 µM); in the data set on Pseudomonas aeruginosa, 25 µg/mL (≈ 64.5 µM). Further, the solubility entry is “soluble” in data set [1]; “soluble” in data set [2]; “soluble” in data set [3]; “soluble” in data set [4]; “Insoluble” in data set [5]; “soluble” in data set [6]. For the same molecule, the solubility entry in [7] is recorded as “Insoluble”; in data set [8], “soluble”; in data set [9], “soluble”.
In the case of `Clc1nc(Nc2ccc(Br)cc2)nc(Nc2ccc(Br)cc2)n1`, the MIC in the data set on Bacillus cereus, against Bacillus subtilis, in the data set on Klebsiella pneumoniae, in the data set on Escherichia coli, with Staphylococcus aureus and against Pseudomonas aeruginosa was 100 µg/mL (≈ 220 µM) throughout. Moreover, the solubility result is reported as “soluble” in data set [1]; “soluble” in [2]; “soluble” in [3]; “soluble” in [4]; “Insoluble” in [5]; “soluble” in [6]. The solubility entry in data set [7] is given as “soluble”; in [8], “Insoluble”; in data set [9], “Insoluble”.
Turning to `Fc1ccc(Nc2nc(Cl)nc(Nc3ccc(F)cc3)n2)cc1`, the MIC came to 50 µg/mL (≈ 150 µM) with Bacillus cereus; 50 µg/mL (≈ 150 µM) against Bacillus subtilis; 50 µg/mL (≈ 150 µM) against Klebsiella pneumoniae; 50 µg/mL (≈ 150 µM) in the data set on Escherichia coli; 100 µg/mL (≈ 300 µM) with Staphylococcus aureus; 100 µg/mL (≈ 300 µM) against Pseudomonas aeruginosa. The solubility result was “soluble” in data set [1]; “Insoluble” in [2]; “soluble” in [3]; “Insoluble” in data set [4]; “Insoluble” in [5]; “soluble” in data set [6]. Besides, the solubility result in data set [7] is reported as “soluble”; in [8] it was “soluble”; in data set [9], “Insoluble”.
As for `Clc1ccc(Nc2nc(Cl)nc(Nc3ccc(Cl)cc3)n2)cc1`, the MIC against Bacillus cereus came to 100 µg/mL (≈ 273 µM); in the data set with Bacillus subtilis, 50 µg/mL (≈ 136 µM); in the data set with Klebsiella pneumoniae it was 25 µg/mL (≈ 68.2 µM); against Escherichia coli it was 25 µg/mL (≈ 68.2 µM); against Staphylococcus aureus it was 50 µg/mL (≈ 136 µM); against Pseudomonas aeruginosa it was 50 µg/mL (≈ 136 µM). Also, the solubility entry in [1] is “soluble”; in [2], “Insoluble”; in [3], “soluble”; in data set [4] it was “Insoluble”; in data set [5], “Insoluble”; in [6], “soluble”. The figures for the solubility entry in [8] and in [9] were “Insoluble” and “soluble”, respectively.
For `Fc1ccc(Nc2nc(Nc3ccc(F)c(Cl)c3)nc(Nc3nc(-c4ccc(Cl)cc4)cs3)n2)cc1Cl`, the MIC was 100 µg/mL (≈ 173 µM) against Bacillus cereus; 50 µg/mL (≈ 86.7 µM) in the data set with Bacillus subtilis; 12.5 µg/mL (≈ 21.7 µM) against Klebsiella pneumoniae; 12.5 µg/mL (≈ 21.7 µM) in the data set on Escherichia coli; 25 µg/mL (≈ 43.3 µM) against Staphylococcus aureus; 25 µg/mL (≈ 43.3 µM) against Pseudomonas aeruginosa. Besides, the solubility result in [1] is given as “soluble”; in data set [2], “soluble”; in [3] it was “Insoluble”; in data set [4], “soluble”; in data set [5], “soluble”; in data set [6], “soluble”. Further, the solubility result in data set [7], in [8] and in data set [9] was “soluble” in each case.
As for `O=[N+]([O-])c1ccc(-c2csc(Nc3nc(Nc4ccc(F)c(Cl)c4)nc(Nc4ccc(F)c(Cl)c4)n3)n2)cc1`, the MIC in the data set with Bacillus cereus turned out to be 25 µg/mL (≈ 42.6 µM); with Bacillus subtilis, 100 µg/mL (≈ 170 µM); against Klebsiella pneumoniae it was 25 µg/mL (≈ 42.6 µM); in the data set with Escherichia coli, 12.5 µg/mL (≈ 21.3 µM); against Staphylococcus aureus, 50 µg/mL (≈ 85.1 µM); in the data set with Pseudomonas aeruginosa, 3.12 µg/mL (≈ 5.32 µM). The solubility result in data set [1] is reported as “soluble”; in data set [2], “soluble”; in data set [3] it was “Insoluble”; in data set [4], “soluble”; in data set [5] it was “soluble”; in [6], “soluble”. For the same molecule, the solubility entry in data set [7], in [8] and in [9] was “soluble” in each case.
`O=[N+]([O-])c1ccc(Nc2nc(Nc3ccc([N+](=O)[O-])cc3)nc(Nc3nc(-c4ccc([N+](=O)[O-])cc4)cs3)n2)cc1`: the MIC with Bacillus cereus is 6.25 µg/mL (≈ 10.9 µM); in the data set on Bacillus subtilis, 6.25 µg/mL (≈ 10.9 µM); with Klebsiella pneumoniae, 6.25 µg/mL (≈ 10.9 µM); with Escherichia coli it was 6.25 µg/mL (≈ 10.9 µM); with Staphylococcus aureus it was 3.12 µg/mL (≈ 5.46 µM); in the data set with Pseudomonas aeruginosa it was 3.12 µg/mL (≈ 5.46 µM). In addition, the solubility entry is reported as “soluble” in data set [1]; “soluble” in data set [2]; “Insoluble” in data set [3]; “Insoluble” in data set [4]; “soluble” in data set [5]; “soluble” in data set [6]. Besides, the figures for the solubility result in data set [7], in data set [8] and in data set [9] were “soluble”, “soluble” and “Insoluble”, respectively.
Take `O=[N+]([O-])c1ccc(-c2csc(Nc3nc(Nc4ccc(Br)cc4)nc(Nc4ccc(Br)cc4)n3)n2)cc1`: the MIC in the data set with Bacillus cereus stood at 100 µg/mL (≈ 156 µM); against Bacillus subtilis, 100 µg/mL (≈ 156 µM); in the data set on Klebsiella pneumoniae, 100 µg/mL (≈ 156 µM); against Escherichia coli it was 100 µg/mL (≈ 156 µM); against Staphylococcus aureus, 100 µg/mL (≈ 156 µM); with Pseudomonas aeruginosa, 50 µg/mL (≈ 78.1 µM). The solubility result in [1], in data set [2], in data set [3], in [4], in data set [5] and in [6] was “soluble” throughout. The solubility result in [7] was “soluble”; in [8], “soluble”; in [9], “Insoluble”.
As to `O=[N+]([O-])c1ccc(-c2csc(Nc3nc(Nc4ccc(F)cc4)nc(Nc4ccc(F)cc4)n3)n2)cc1`, the MIC turned out to be 100 µg/mL (≈ 193 µM) against Bacillus cereus; 50 µg/mL (≈ 96.4 µM) against Bacillus subtilis; 50 µg/mL (≈ 96.4 µM) in the data set with Klebsiella pneumoniae; 25 µg/mL (≈ 48.2 µM) with Escherichia coli; 50 µg/mL (≈ 96.4 µM) against Staphylococcus aureus; 25 µg/mL (≈ 48.2 µM) with Pseudomonas aeruginosa. In addition, the solubility result was “soluble” in data set [1]; “soluble” in data set [2]; “Insoluble” in [3]; “Insoluble” in data set [4]; “soluble” in data set [5]; “soluble” in data set [6]. Further, the solubility entry in data set [7], in data set [8] and in [9] was “soluble” in each case.
With `O=[N+]([O-])c1ccc(-c2csc(Nc3nc(Nc4ccc(Cl)cc4)nc(Nc4ccc(Cl)cc4)n3)n2)cc1`, the MIC in the data set on Bacillus cereus amounted to 12.5 µg/mL (≈ 22.7 µM); against Bacillus subtilis, 25 µg/mL (≈ 45.3 µM); against Klebsiella pneumoniae it was 6.25 µg/mL (≈ 11.3 µM); against Escherichia coli, 12.5 µg/mL (≈ 22.7 µM); in the data set with Staphylococcus aureus, 25 µg/mL (≈ 45.3 µM); against Pseudomonas aeruginosa it was 6.25 µg/mL (≈ 11.3 µM). The solubility entry is given as “soluble” in data set [1]; “soluble” in [2]; “Insoluble” in data set [3]; “Insoluble” in [4]; “soluble” in data set [5]; “soluble” in data set [6]. In addition, the solubility result was “soluble” in data set [7], “soluble” in data set [8] and “Insoluble” in data set [9].
Take `CN[C@@H]1[C@H](O[C@H]2[C@H](O[C@H]3[C@H](O)[C@@H](O)[C@H](N=C(N)N)[C@@H](O)[C@@H]3N=C(N)N)O[C@@H](C)[C@]2(O)C=O)O[C@@H](CO)[C@H](O)[C@H]1O` [STREPTOMYCIN]: the MIC with Bacillus cereus came out at 3.12 µg/mL (≈ 5.37 µM); against Bacillus subtilis, 6.25 µg/mL (≈ 10.7 µM); in the data set with Klebsiella pneumoniae, 6.25 µg/mL (≈ 10.7 µM); in the data set with Escherichia coli, 6.25 µg/mL (≈ 10.7 µM); against Staphylococcus aureus it was 3.12 µg/mL (≈ 5.37 µM); with Pseudomonas aeruginosa it was 3.12 µg/mL (≈ 5.37 µM).

The record behind these values is ChEMBL document CHEMBL3045944, “Synthesis and antibacterial evaluation of series of novel tri-substituted-s-triazine derivatives” (Med Chem Res, 2011).
